# Measurements as given in patent US6417393B1, “Phenyl derivatives containing an acidic group, their preparation and their use as chloride channel blockers” (Neurosearch A/S, priority 1996, dated 2002).
# Key:
# erythrocytes = assay: Valinomycin induced cell volume loss (relative volume of packed cells); type: cell-based; settings: valinomycin for 5 min
# Experimental: Inducing a massive water and salt loss (KCI) by addition the K^+-ionophore valinomycin to the suspension for 5 min reduced the cell volume by 26%.
# [1] = system: chloride channels of sickle cell erythrocytes; assay: Cl- conductance (GCl) in oxygenated and deoxygenated homozygoteous sickle cell erythrocytes; type: cell-based, Human; settings: oxygenated as well as deoxygenated homozygoteous sickle cell erythrocytes; compared with normal erythrocytes
# Excerpt: (§1) The compounds of the present invention are potent blockers of chloride channels in normal as well as sickle cell erythrocytes.
# (§2) All dose-response experiments were therefore performed by concomitant measurements of conductive netfluxes of Cl^− (JCl) and membrane potentials (Vm) in suspensions of erythrocytes (Bennekou, P. and Christophersen, P. (1986), Flux ratio of Valinomycin—Mediated K^+ Fluxes across the Human Red Cell Membrane in the presence of the Protronophore CCCP. J. Membrane Biol. 93, 221-227. ). The membrane Cl^−-conductances were calculated by the following equation (Hodgkin, A. L. and Huxley, A. F. (1952) The components of membrane conductance in the giant axon of loligo. J. Physiol. Lond. 116, 449-472): [formula]
# (§3) where F is the Faraday constant and ECl is the Nernst potential for the Cl-ion.
# sickle erythrocytes = assay: K+ flux from sickle erythrocytes, basal and deoxygenation induced (extracellular K+-concentration vs time); type: cell-based; settings: 10 μM; oxygenated sickle erythrocytes
# Excerpt: Deoxygenation induced permeability increases of sickle cells were estimated by measuring the extracellular K^+-concentration vs time. […] The K^+ flux from oxygenated sickle erythrocytes was 2-3 times higher than from normal erythrocytes and these fluxes was accelerated 4-8 times upon deoxygenation.
# [2] = system: erythrocyte chloride channels; assay: Cl- conductance (GCl) from concomitant measurements of conductive Cl- netfluxes and membrane potentials in suspensions of normal erythrocytes; type: cell-based, Human; settings: suspension of normal erythrocytes; read-out: IC50-value for block of GCl
# Excerpt: as §1, §2, §3
# mice = assay: Toxicity to mice; type: in vivo; settings: up to 150 mg/kg i.p. and i.v.
# Experimental: N-(3-Trifluoromethylphenyl)-N′-(2-carboxyphenyl) urea was non-toxic to mice at concentrations up to 150 mg/kg i.p. and i.v.
smiles,measurement,setting,value
O=C(Nc1cccc(C(F)(F)F)c1)Nc1ccccc1C(=O)O [3′-Trifluoromethylphenyl-2-carboxyphenyl Urea],IC50,"erythrocytes; Erythrocyte, 5 min, read-out: IC50-value for reduction of valinomycin induced volume loss",1.2 µM
same,cell volume loss remaining in presence of compound,erythrocytes; volume loss without compound 26%,7%
same,block of GCl from sickle cell erythrocytes,[1],equipotently blocked
same,basal K+-flux from sickle erythrocytes,sickle erythrocytes,normalised
same,IC50,[2],0.6 µM
same,toxicity to mice,mice,non-toxic
